Source: ChEMBL document CHEMBL1201862, “PubChem BioAssay data set” (2004)
Blank lines part the entries; values can stand above or below the compound they belong to. Active and inactive are the calls of the source.

Columns and labels:
[1] = target: Caspase-6 (Homo sapiens, UniProt P55212); assay: human caspase-6 inhibitors, dose response, biochemical, VEID-R110 fluorescence, cherry-pick (AID 720632)
[2] = test system: Vero; assay: cytotoxicity of synthesized analogs in Vero cells, SAR follow-up, cytotoxicity control for West Nile virus antiviral project, cell-based, set II (AID 2402); assay type: functional; details: Chlorocebus sabaeus
[3] = target: Prothrombin (Homo sapiens, UniProt P00734); assay: Thrombin 1536 HTS Dose Response Confirmation. [Related pubchem assays: 1046 (Thrombin 1536 HTS; hits were confirmed in this assay)]; assay type: functional
[4] = test system: Vero; assay: cytotoxicity of synthesized analogs in Vero 76, SAR follow-up, cytotoxicity control for West Nile virus antiviral project, Vero 76 cells (AID 2414); assay type: functional; details: Chlorocebus sabaeus
[5] = target: Melanin-concentrating hormone receptor 1 (Homo sapiens, UniProt Q99705); assay: Fluorescence-based counterscreen for antagonists of the G-protein coupled receptor 7 (GPR7): cell-based high throughput dose response assay to identify antagonists of the melanin-concentrating hormone receptor 1 (MCHR1).; assay type: functional
Melanin-concentrating hormone receptor 1, sequence (Q99705 whole entry): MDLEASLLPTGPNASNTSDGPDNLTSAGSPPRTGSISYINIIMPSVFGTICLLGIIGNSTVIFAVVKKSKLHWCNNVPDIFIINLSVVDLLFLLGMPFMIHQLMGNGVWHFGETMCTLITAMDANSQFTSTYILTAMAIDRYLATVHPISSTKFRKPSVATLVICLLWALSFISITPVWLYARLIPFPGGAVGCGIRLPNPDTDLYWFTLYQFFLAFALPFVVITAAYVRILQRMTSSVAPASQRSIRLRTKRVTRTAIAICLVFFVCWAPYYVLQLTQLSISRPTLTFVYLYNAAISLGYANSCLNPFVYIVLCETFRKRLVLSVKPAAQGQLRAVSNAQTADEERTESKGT

[6] = target: Neuropeptides B/W receptor type 1 (Homo sapiens, UniProt P48145); assay: Fluorescence-based dose response cell-based high throughput screening assay to identify antagonists of the G-protein coupled receptor 7 (GPR7). [Related pubchem assays: 1952 (Screening assay (GPR7 antagonists).), 1880 (Summary AID.)]; assay type: functional
Neuropeptides B/W receptor type 1, sequence (P48145 whole entry): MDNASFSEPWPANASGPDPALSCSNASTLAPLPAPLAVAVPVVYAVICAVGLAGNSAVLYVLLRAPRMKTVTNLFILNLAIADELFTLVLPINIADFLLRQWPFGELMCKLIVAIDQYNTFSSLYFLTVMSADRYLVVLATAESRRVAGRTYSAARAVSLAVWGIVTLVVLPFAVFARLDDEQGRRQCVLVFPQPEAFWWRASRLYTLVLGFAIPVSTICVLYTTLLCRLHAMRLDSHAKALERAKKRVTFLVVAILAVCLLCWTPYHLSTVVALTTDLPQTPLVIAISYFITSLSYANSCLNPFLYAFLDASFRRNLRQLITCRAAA

[7] = test system: Vero; assay: West Nile virus antiviral activity, cell-based, CPE readout (AID 1621); assay type: functional; details: Chlorocebus sabaeus
[8] = Artemis endonuclease inhibitor potency, dose response, biochemical, fluorescence intensity (AID 720701); assay type: functional;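 further: Artemis endonuclease enzyme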
[9] = inhibitors of Vif binding to APOBEC3G peptide, primary screen, biochemical, TR-FRET, GST-Vif 1-94, biotin-A3G peptide, dose response retest (AID 1117319); assay type: functional;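 further: TR-FRET signal of purified GST-Vif binding a biotinylated A3G peptide; inhibitors lower the FRET signal by blocking Vif and A3G binding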
[10] = Vero cell cytotoxicity, dose response, cytotoxicity control for Vif-APOBEC3G degradation inhibitor project, Vero cells (AID 1117358); assay type: functional; details: Human immunodeficiency virus 1, Vero
[11] = target: T1, Protein Tat (Human immunodeficiency virus type 1 group M subtype B (isolate HXB2)(HIV-1), UniProt P04608); assay type: functional;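 further: tat binding to TAR RNA read out by fluorescence polarization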
T1 sequence (P04608 whole entry): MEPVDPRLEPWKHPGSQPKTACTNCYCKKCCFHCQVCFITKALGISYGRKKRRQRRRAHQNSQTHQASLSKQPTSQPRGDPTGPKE

[12] = target: Diphosphomevalonate decarboxylase (Streptococcus pneumoniae serotype 2 (strain D39 / NCTC 7466), UniProt Q9FD53); assay: S. pneumoniae DPM-DC inhibition retest, confirmation, biochemical, cuvette format, coupled NADH fluorescence (AID 1028); assay type: functional
Diphosphomevalonate decarboxylase, sequence (Q9FD53 whole entry): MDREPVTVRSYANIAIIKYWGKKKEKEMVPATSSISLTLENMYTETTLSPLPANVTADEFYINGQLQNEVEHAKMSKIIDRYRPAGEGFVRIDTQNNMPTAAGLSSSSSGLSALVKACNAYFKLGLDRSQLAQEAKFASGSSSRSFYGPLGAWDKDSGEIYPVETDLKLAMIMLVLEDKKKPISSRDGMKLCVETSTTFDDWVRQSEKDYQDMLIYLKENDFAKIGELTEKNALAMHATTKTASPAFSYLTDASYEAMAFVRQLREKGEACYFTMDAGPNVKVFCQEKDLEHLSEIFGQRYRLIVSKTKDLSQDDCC

[13] = Jurkat T cell cytotoxicity, dose response, cytotoxicity control for P. falciparum gametocyte viability project, luminescence (AID 1117277); assay type: functional, cell-based;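 further: potency reflects loss of cellular ATP meaning fewer viable cells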
[14] = P. falciparum late gametocyte killing, dose response, luminescence (AID 1117278); assay type: functional, cell-based;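 further: gametocytes exposed to compound for 24 hours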
[15] = target: E3 ubiquitin-protein ligase Mdm2 (Homo sapiens, UniProt Q00987); assay: enhancers of MDM2-luciferase reporter signal, concentration-effect titration, project on inhibitors of MDM2 ubiquitin ligase, cellular assay, luminescent readout, 384-well plate format (AID 1394); assay type: functional;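 further: MDM2 E3 inhibitors raise luminescence so EC50 is for signal enhancement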
E3 ubiquitin-protein ligase Mdm2, sequence (Q00987 whole entry): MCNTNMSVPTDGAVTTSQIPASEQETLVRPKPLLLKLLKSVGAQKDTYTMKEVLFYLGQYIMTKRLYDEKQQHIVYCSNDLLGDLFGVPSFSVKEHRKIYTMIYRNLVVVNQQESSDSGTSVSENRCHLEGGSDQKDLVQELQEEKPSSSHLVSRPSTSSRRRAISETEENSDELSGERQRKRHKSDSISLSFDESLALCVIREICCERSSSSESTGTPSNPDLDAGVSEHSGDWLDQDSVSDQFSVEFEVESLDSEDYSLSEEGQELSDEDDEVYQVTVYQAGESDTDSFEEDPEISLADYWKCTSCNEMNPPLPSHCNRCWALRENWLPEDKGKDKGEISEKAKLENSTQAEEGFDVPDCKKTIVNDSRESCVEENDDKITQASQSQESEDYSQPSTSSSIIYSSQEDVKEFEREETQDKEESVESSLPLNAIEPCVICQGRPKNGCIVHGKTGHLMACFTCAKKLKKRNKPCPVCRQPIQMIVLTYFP

[16] = target: T2, Heat shock factor protein 1 (Mus musculus, UniProt P38532); assay: inhibition of MG132-induced HSE-luciferase signal, confirmation, cell-based, NIH3T3, luminescence, dose retest (AID 2382); assay type: functional;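 further: NIH3T3 fibroblasts with HSF1-driven luciferase reporter stressed by proteasome inhibitor MG132; luminescence from HSF1-driven luciferase expression after 8 hours of MG132 stress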
T2 sequence (P38532 whole entry): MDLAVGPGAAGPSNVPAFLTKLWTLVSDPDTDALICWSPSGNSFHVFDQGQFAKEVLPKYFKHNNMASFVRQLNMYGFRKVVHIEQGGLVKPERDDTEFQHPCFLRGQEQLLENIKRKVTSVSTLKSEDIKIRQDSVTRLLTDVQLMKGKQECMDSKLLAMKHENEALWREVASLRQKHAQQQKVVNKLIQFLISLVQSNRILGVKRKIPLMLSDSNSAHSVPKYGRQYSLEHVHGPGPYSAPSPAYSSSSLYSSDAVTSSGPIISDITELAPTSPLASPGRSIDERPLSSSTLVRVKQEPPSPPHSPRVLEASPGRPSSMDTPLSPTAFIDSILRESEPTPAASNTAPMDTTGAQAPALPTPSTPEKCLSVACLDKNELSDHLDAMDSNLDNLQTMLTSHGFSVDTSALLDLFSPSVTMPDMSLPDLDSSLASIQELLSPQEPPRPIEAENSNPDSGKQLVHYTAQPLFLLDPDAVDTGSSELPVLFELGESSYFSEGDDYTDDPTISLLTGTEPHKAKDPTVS

[17] = target: RNA-editing ligase 1, mitochondrial (Trypanosoma brucei brucei, UniProt P86926); assay: TbREL1 ligase inhibitors, dose response, biochemical, fluorescence, Trypanosoma brucei (AID 1117295); assay type: functional
RNA-editing ligase 1, mitochondrial, sequence (P86926 whole entry): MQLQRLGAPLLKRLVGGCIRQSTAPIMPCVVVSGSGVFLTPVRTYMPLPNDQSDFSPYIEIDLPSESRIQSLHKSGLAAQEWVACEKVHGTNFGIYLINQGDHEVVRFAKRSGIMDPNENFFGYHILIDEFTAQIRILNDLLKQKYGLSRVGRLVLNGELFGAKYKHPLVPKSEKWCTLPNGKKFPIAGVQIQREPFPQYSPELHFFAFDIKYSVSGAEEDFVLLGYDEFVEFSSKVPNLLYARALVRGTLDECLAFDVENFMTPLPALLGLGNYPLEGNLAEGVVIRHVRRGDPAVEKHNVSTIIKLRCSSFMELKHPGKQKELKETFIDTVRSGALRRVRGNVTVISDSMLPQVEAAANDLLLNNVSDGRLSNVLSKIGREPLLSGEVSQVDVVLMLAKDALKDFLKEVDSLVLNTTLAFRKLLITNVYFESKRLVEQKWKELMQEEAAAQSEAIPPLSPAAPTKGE

Caspase-6, sequence (P55212 24-179 limits assumed): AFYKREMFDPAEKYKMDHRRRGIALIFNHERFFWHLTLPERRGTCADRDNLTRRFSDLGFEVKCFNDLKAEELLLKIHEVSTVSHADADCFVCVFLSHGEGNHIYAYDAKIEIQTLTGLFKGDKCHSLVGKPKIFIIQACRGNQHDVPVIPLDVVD
Caspase-6, sequence (P55212 194-293 limits assumed): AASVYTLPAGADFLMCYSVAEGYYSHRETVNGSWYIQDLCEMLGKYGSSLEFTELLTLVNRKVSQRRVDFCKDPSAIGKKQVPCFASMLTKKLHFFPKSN

AC50 [1]: 28.8 µM (active)
SMILES: CCO/C(O)=C1/C(C)=Nc2ccccc2N=C1NS(=O)(=O)c1cc(C(=O)O)ccc1Cl

SMILES: COc1cccc(-n2c(SCC(=O)Nc3ccc4c(c3)CCC4)nc3ccccc3c2=O)c1
CC50 [2]: > 100 µM (active)
IC50 [3]: > 50 µM (not active)
CC50 [4]: > 66.6 µM (active)

SMILES: OC1(c2ccc(F)cc2)CC2CCC(C1)N2Cc1nnnn1C1CCCCC1 (configuration not stated)
IC50 [5]: 24 µM (not active)
IC50 [6]: 28.3 µM (not active)

SMILES: Cc1ccc(-c2cc(C(=O)NCCCN3CCCC3)c3ccccc3n2)cc1C
IC50 [7]: 21.8 µM (active)

IC50 [8]: 6.96 µM (active)
IC50 [9]: > 100 µM (active)
IC50 [11]: > 100 µM (active)
SMILES: COc1ccc(C2CC(c3ccccc3)n3nc(NC(=O)c4cccs4)nc3N2)cc1 (configuration not stated)
CC50 [10]: > 40 µM (active)

SMILES: O=C(c1cccc(-n2sc3ccccc3c2=O)c1)N1CCCC1
IC50 [12]: 16.5 µM (active)

SMILES: Cc1cc(S(=O)(=O)N(Cc2ccccc2F)C2CC2)ccc1-n1cnnn1
IC50 [13]: > 83.2 µM (inactive)
IC50 [14]: > 109 µM (inactive)

EC50 [15]: 4.34 µM (active)
EC50 [16]: 14.4 µM (active)
SMILES: CCOC(=O)/C=C/C(=O)Nc1ccccc1-c1ccccc1NC(=O)/C=C/C(=O)OCC

SMILES: Cc1c(P(=S)(c2ccccc2)c2ccccc2)n2ccccc2[n+]1C/C=C/c1ccccc1
IC50 [17]: > 96.6 µM (inactive)
